# Assay results from patent publication US6685617B1, “Inhibitors of α4β1 mediated cell adhesion” (Pharmacia & Upjohn Company, priority 1998, dated 2004).
# Key:
# [1] = target: T1, α4β1 integrin (Jurkat T-cell adhesion to IL-1 stimulated endothelial cell monolayers) (Homo sapiens, UniProt P05556+P13612); assay: Jurkat-endothelial cell adhesion assay (Jurkat EC); format: cell-based; conditions: Jurkat cells on IL-1 stimulated human umbilical vein endothelial cells; read-out: JK/EC (Jurkat EC Assay IC50 value range)
# T1 construct: a T-cell line, Jurkat, known to express the α4β1 integrin; host or cells: Jurkat T-cell line
# Procedure, shortened: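 BCECF-AM-labelled Jurkat cells were mixed with compound, generally 100, 20, 5 and 1.25 μM, and added to HUVEC monolayers (passage ≤6) pre-stimulated 4 hr at 37° C with 0.1 ng/ml IL-1. After 5 min on ice and 20 min at 37° C, washed wells were read by fluorescence as % adhesion relative to no compound.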
# [2] = target: T2, α4β1 integrin (Jurkat cell adhesion to immobilized CS-1 derived peptide CLHPGEILDVPST) (Homo sapiens, UniProt P05556+P13612); assay: Jurkat-CS-1 assay; format: cell-based; conditions: Jurkat cells on CS-1 peptide coated plates; read-out: JK/CS-1 (Jurkat CS-1 Assay IC50 value range)
# T2 construct: 100 μl of Jurkat cells (2.5×10^6 cells/ml) in DMEM plus BSA; host or cells: Jurkat T-cell line
# Procedure, shortened: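 CS-1 peptide was SPDP-crosslinked onto HSA-coated plates and blocked with BSA. Jurkat cells (2.5×10^6 cells/ml) in DMEM/BSA were mixed with compound, generally at 100, 20, 5 and 1.25 μM, and allowed to adhere for 1 hr at 37° C. Bound cells were fixed, stained with toluidine blue and quantified by OD590.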
# T2 sequence (P13612 34-1032): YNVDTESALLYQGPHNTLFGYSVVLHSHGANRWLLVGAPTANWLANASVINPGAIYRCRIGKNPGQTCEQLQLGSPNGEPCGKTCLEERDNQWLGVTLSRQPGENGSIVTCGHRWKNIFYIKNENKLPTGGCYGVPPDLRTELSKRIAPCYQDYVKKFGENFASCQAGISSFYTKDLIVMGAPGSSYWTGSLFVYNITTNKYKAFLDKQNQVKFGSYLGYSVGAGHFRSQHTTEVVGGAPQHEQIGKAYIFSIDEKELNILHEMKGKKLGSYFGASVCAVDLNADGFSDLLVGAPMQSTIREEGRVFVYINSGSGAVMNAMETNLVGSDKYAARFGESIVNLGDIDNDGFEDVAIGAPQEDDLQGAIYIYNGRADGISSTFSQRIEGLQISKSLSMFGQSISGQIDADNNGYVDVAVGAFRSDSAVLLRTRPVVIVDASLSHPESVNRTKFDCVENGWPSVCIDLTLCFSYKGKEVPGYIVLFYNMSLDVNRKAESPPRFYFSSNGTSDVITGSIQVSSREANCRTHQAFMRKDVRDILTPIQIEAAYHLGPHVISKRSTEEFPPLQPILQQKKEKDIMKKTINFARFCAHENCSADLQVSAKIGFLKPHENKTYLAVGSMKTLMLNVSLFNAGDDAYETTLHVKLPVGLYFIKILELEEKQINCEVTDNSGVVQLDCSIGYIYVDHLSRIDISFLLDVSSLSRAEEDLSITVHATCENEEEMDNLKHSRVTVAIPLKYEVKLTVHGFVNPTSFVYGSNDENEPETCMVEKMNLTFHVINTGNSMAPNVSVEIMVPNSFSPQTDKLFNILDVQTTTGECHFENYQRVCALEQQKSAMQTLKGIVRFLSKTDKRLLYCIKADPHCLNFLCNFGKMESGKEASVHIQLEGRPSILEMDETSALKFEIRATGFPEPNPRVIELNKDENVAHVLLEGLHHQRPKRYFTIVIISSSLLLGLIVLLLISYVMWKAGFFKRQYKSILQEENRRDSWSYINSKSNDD
# T2 sequence (P05556 21-798): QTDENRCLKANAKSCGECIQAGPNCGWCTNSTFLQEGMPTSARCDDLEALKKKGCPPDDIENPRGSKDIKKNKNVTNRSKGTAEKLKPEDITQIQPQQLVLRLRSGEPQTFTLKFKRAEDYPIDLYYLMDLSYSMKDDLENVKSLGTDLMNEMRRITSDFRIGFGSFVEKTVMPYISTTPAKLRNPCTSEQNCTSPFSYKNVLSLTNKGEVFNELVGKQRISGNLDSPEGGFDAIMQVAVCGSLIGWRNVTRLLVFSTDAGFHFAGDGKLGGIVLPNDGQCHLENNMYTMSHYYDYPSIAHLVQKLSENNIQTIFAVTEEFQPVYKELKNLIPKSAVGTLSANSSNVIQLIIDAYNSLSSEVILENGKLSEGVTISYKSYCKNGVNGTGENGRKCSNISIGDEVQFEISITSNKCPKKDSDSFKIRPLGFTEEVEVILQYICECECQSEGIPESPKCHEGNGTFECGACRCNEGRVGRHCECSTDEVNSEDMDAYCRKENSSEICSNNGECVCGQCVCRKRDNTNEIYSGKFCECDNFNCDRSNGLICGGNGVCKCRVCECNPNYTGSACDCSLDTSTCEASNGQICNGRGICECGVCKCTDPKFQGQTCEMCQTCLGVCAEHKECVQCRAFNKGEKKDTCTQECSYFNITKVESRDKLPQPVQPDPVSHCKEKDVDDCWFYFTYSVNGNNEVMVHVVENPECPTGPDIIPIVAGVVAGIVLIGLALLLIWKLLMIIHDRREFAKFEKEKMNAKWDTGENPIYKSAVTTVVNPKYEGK
# T1 sequence (P13612 34-1032): as the sequence (P13612 34-1032) above
# T1 sequence (P05556 21-798): as the sequence (P05556 21-798) above
IC50 [1] [µM],IC50 [2] [µM],Compound
≥ 1,0.05 to 0.75,"CN1C(=O)CC(C(=O)N[C@@H](Cc2ccc(NC(=O)c3c(Cl)cccc3Cl)cc2)C(=O)O)C1c1ccc2c(c1)OCO2 (stereo partly drawn) [Example 171, N-[[2-(1,3-Benzodioxol-5-yl)-1-methyl-5-oxo-3-pyrrolidinyl]carbonyl]-4-[(2,6-dichlorobenzoyl)amino]-L-phenylalanine]"
≤ 0.25,≤ 0.05,"O=C(O)c1cncc(C(=O)N2CCCC[C@H]2C(=O)N[C@@H](Cc2ccc(NC(=O)c3c(Cl)cccc3Cl)cc2)C(=O)O)c1 [Example 172, 5-[[(2S)-2-[[[(1S)-1-Carboxy-2-[4-[(2,6-dichlorobenzoyl)amino]phenyl]ethyl]amino]carbonyl]-1-piperidinyl]carbonyl]-3-pyridinecarboxylic Acid]"
≤ 0.25,0.05 to 0.75,"COCCC(=O)N1CCCC(C(=O)N[C@@H](Cc2ccc(NC(=O)c3c(Cl)cccc3Cl)cc2)C(=O)O)C1 (stereo partly drawn) [Example 173, 4-[(2,6-Dichlorobenzoyl)amino]-N-[[1-(3-methoxy-1-oxopropyl)-3-piperidinyl]carbonyl]-L-phenylalanine]"
≥ 1,0.05 to 0.75,O=C(O)/C=C/C(=O)N1CCCC[C@H]1C(=O)N[C@@H](Cc1ccc(NC(=O)c2c(Cl)cccc2Cl)cc1)C(=O)O [Example 176]
≥ 1,≤ 0.05,COCCC(=O)N1CCCC[C@H]1C(=O)N[C@@H](Cc1ccc(NC(=O)c2c(Cl)cccc2Cl)cc1)C(=O)O [Example 177]
≥ 1,≤ 0.05,O=C(Nc1ccc(C[C@H](NC(=O)[C@@H]2CCCCN2C(=O)C2CCCC(C(=O)O)C2)C(=O)O)cc1)c1c(Cl)cccc1Cl (some centres unmarked) [Example 178]
≥ 1,0.05 to 0.75,O=C(O)c1ccccc1C(=O)N1CCCC[C@H]1C(=O)N[C@@H](Cc1ccc(NC(=O)c2c(Cl)cccc2Cl)cc1)C(=O)O [Example 181]
0.25 to 1,0.05 to 0.75,O=C(O)c1cccc(C(=O)N2CCCC[C@H]2C(=O)N[C@@H](Cc2ccc(NC(=O)c3c(Cl)cccc3Cl)cc2)C(=O)O)c1 [Example 182]
≤ 0.25,≤ 0.05,O=C(Nc1ccc(C[C@H](NC(=O)[C@@H]2CCCCN2C(=O)c2cccnc2)C(=O)O)cc1)c1c(Cl)cccc1Cl [Example 185]
≤ 0.25,≤ 0.05,O=C(O)c1cccc(C(=O)N2CCCC[C@H]2C(=O)N[C@@H](Cc2ccc(NC(=O)c3c(Cl)cccc3Cl)cc2)C(=O)O)n1 [Example 186]
≥ 1,0.05 to 0.75,O=C(O)c1ccc(C(=O)N2CCCC[C@H]2C(=O)N[C@@H](Cc2ccc(NC(=O)c3c(Cl)cccc3Cl)cc2)C(=O)O)nc1 [Example 187]
≥ 1,0.05 to 0.75,O=C(Nc1ccc(C[C@H](NC(=O)[C@@H]2CCCCN2C(=O)c2cc(O)c3ccccc3n2)C(=O)O)cc1)c1c(Cl)cccc1Cl [Example 188]
≥ 1,0.05 to 0.75,O=C(O)c1cc(C(=O)N2CCCC[C@H]2C(=O)N[C@@H](Cc2ccc(NC(=O)c3c(Cl)cccc3Cl)cc2)C(=O)O)n[nH]1 [Example 189]
0.25 to 1,0.05 to 0.75,O=C(Nc1ccc(C[C@H](NC(=O)[C@@H]2CCCCN2C(=O)C2NC(C(=O)O)CS2)C(=O)O)cc1)c1c(Cl)cccc1Cl (some centres unmarked) [Example 190]
≥ 1,0.05 to 0.75,O=C(Nc1ccc(C[C@H](NC(=O)[C@@H]2CCCCN2C(=O)c2ccc([N+](=O)[O-])o2)C(=O)O)cc1)c1c(Cl)cccc1Cl [Example 191]
≤ 0.25,≤ 0.05,O=C(Nc1ccc(C[C@H](NC(=O)[C@@H]2CCCCN2C(=O)C2CCCO2)C(=O)O)cc1)c1c(Cl)cccc1Cl (some centres unmarked) [Example 192]
≤ 0.25,0.05 to 0.75,O=C(Nc1ccc(C[C@H](NC(=O)[C@@H]2CCCCN2C(=O)C2CCOC2)C(=O)O)cc1)c1c(Cl)cccc1Cl (some centres unmarked) [Example 193]
≥ 1,0.05 to 0.75,O=C(O)CC1(CC(=O)N2CCCC(C(=O)N[C@@H](Cc3ccc(NC(=O)c4c(Cl)cccc4Cl)cc3)C(=O)O)C2)CCCC1 (some centres unmarked) [Example 195]
≥ 1,0.05 to 0.75,CC(C)(CC(=O)O)CC(=O)N1CCCC(C(=O)N[C@@H](Cc2ccc(NC(=O)c3c(Cl)cccc3Cl)cc2)C(=O)O)C1 (some centres unmarked) [Example 196]
≥ 1,≥ 0.75,O=C(O)/C=C\C(=O)N1CCCC(C(=O)N[C@@H](Cc2ccc(NC(=O)c3c(Cl)cccc3Cl)cc2)C(=O)O)C1 (some centres unmarked) [Example 197]
≥ 1,0.05 to 0.75,O=C(Nc1ccc(C[C@H](NC(=O)C2CCCN(C(=O)C3CCCC(C(=O)O)C3)C2)C(=O)O)cc1)c1c(Cl)cccc1Cl (some centres unmarked) [Example 200]
≥ 1,0.05 to 0.75,CC(=O)CCC(=O)N1CCCC(C(=O)N[C@@H](Cc2ccc(NC(=O)c3c(Cl)cccc3Cl)cc2)C(=O)O)C1 (some centres unmarked) [Example 201]
≥ 1,0.05 to 0.75,COc1ccc(C(=O)N2CCCC(C(=O)N[C@@H](Cc3ccc(NC(=O)c4c(Cl)cccc4Cl)cc3)C(=O)O)C2)cc1OC (some centres unmarked) [Example 203]

IC50 [1] [µM],IC50 [2] [µM],Compound
0.25 to 1,0.05 to 0.75,O=C(O)c1ccccc1C(=O)N1CCCC(C(=O)N[C@@H](Cc2ccc(NC(=O)c3c(Cl)cccc3Cl)cc2)C(=O)O)C1 (some centres unmarked) [Example 204]
0.25 to 1,0.05 to 0.75,O=C(O)c1ccc2cc(C(=O)N3CCCC(C(=O)N[C@@H](Cc4ccc(NC(=O)c5c(Cl)cccc5Cl)cc4)C(=O)O)C3)ccc2c1 (some centres unmarked) [Example 206]
≥ 1,0.05 to 0.75,O=C(O)c1cncc(C(=O)N2CCCC(C(=O)N[C@@H](Cc3ccc(NC(=O)c4c(Cl)cccc4Cl)cc3)C(=O)O)C2)c1 (some centres unmarked) [Example 207]
≥ 1,0.05 to 0.75,CC(=O)CCC(=O)N1CCC(C(=O)N[C@@H](Cc2ccc(NC(=O)c3c(Cl)cccc3Cl)cc2)C(=O)O)CC1 [Example 216]
≥ 1,0.05 to 0.75,O=C(O)c1cccc(C(=O)N2CCC(C(=O)N[C@@H](Cc3ccc(NC(=O)c4c(Cl)cccc4Cl)cc3)C(=O)O)CC2)c1 [Example 220]
≥ 1,0.05 to 0.75,O=C(O)c1cncc(C(=O)N2CCC(C(=O)N[C@@H](Cc3ccc(NC(=O)c4c(Cl)cccc4Cl)cc3)C(=O)O)CC2)c1 [Example 222]
≥ 1,0.05 to 0.75,O=C(O)CCC(=O)N1CCC[C@H]1C(=O)N[C@@H](Cc1ccc(NC(=O)c2c(Cl)cccc2Cl)cc1)C(=O)O [Example 224]
≥ 1,0.05 to 0.75,O=C(O)CC1(CC(=O)N2CCC[C@H]2C(=O)N[C@@H](Cc2ccc(NC(=O)c3c(Cl)cccc3Cl)cc2)C(=O)O)CCCC1 [Example 225]
≥ 1,0.05 to 0.75,CC(C)(CC(=O)O)CC(=O)N1CCC[C@H]1C(=O)N[C@@H](Cc1ccc(NC(=O)c2c(Cl)cccc2Cl)cc1)C(=O)O [Example 226]
≥ 1,0.05 to 0.75,O=C(O)/C=C\C(=O)N1CCC[C@H]1C(=O)N[C@@H](Cc1ccc(NC(=O)c2c(Cl)cccc2Cl)cc1)C(=O)O [Example 227]
≥ 1,0.05 to 0.75,O=C(O)/C=C/C(=O)N1CCC[C@H]1C(=O)N[C@@H](Cc1ccc(NC(=O)c2c(Cl)cccc2Cl)cc1)C(=O)O [Example 228]
≥ 1,0.05 to 0.75,COCCC(=O)N1CCC[C@H]1C(=O)N[C@@H](Cc1ccc(NC(=O)c2c(Cl)cccc2Cl)cc1)C(=O)O [Example 229]
≥ 1,0.05 to 0.75,O=C(Nc1ccc(C[C@H](NC(=O)[C@@H]2CCCN2C(=O)C2CCCC(C(=O)O)C2)C(=O)O)cc1)c1c(Cl)cccc1Cl (some centres unmarked) [Example 230]
≥ 1,0.05 to 0.75,CC(=O)CCC(=O)N1CCC[C@H]1C(=O)N[C@@H](Cc1ccc(NC(=O)c2c(Cl)cccc2Cl)cc1)C(=O)O [Example 231]
≥ 1,≥ 0.75,O=C(O)CNC(=O)N1CCC[C@H]1C(=O)N[C@@H](Cc1ccc(NC(=O)c2c(Cl)cccc2Cl)cc1)C(=O)O [Example 232]
≥ 1,0.05 to 0.75,COc1ccc(C(=O)N2CCC[C@H]2C(=O)N[C@@H](Cc2ccc(NC(=O)c3c(Cl)cccc3Cl)cc2)C(=O)O)cc1OC [Example 233]
≥ 1,0.05 to 0.75,O=C(O)c1ccccc1C(=O)N1CCC[C@H]1C(=O)N[C@@H](Cc1ccc(NC(=O)c2c(Cl)cccc2Cl)cc1)C(=O)O [Example 234]
≥ 1,0.05 to 0.75,O=C(O)c1cccc(C(=O)N2CCC[C@H]2C(=O)N[C@@H](Cc2ccc(NC(=O)c3c(Cl)cccc3Cl)cc2)C(=O)O)c1 [Example 235]
≥ 1,≥ 0.75,O=C(O)c1ccc2cc(C(=O)N3CCC[C@H]3C(=O)N[C@@H](Cc3ccc(NC(=O)c4c(Cl)cccc4Cl)cc3)C(=O)O)ccc2c1 [Example 236]
≥ 1,0.05 to 0.75,O=C(O)c1cncc(C(=O)N2CCC[C@H]2C(=O)N[C@@H](Cc2ccc(NC(=O)c3c(Cl)cccc3Cl)cc2)C(=O)O)c1 [Example 237]
≥ 1,0.05 to 0.75,O=C(O)c1ccc(NC(=O)N2CCC[C@H]2C(=O)N[C@@H](Cc2ccc(NC(=O)c3c(Cl)cccc3Cl)cc2)C(=O)O)cc1 [Example 238]
≥ 1,0.05 to 0.75,O=C(Nc1ccc(C[C@H](NC(=O)[C@@H]2CSCN2C(=O)c2cccnc2)C(=O)O)cc1)c1c(Cl)cccc1Cl [Example 239]
≥ 1,0.05 to 0.75,O=C(O)c1cccc(C(=O)N2CSC[C@H]2C(=O)N[C@@H](Cc2ccc(NC(=O)c3c(Cl)cccc3Cl)cc2)C(=O)O)n1 [Example 240]
